# Reference: patent publication US20230103554A1, “TNFa SIGNALING [sequence] TUMOR-PROMOTING INFLAMMATION THAT CAN BE TARGETED TO THERAPY” (Baylor College of Medicine, priority 2020, published 2023)
# How the values were obtained:
# [1] = test system: SK-N-AS-luc/monocyte xenografts; test: SK-N-AS-luc/monocyte subcutaneous xenograft in NSG mice; assay type: in vivo, mouse
# Method: Luciferase-labeled NB and freshly isolated human monocytes were embedded in Matrigel and injected into the subcutaneous right flank of 8-week female NSG mice. […] (FIG. 9A) Tumor growth was tracked indirectly through luminescence imaging using IVIS Imaging system. (FIG. 9B) Average tumor luminescence of each group over time. After 3 weeks, mice were sacrificed and the tumor size was analyzed directly by weight. The bottom line is NB+Mono+FcTNFR and the top line is NB+Mono+IgG. (FIG. 9C) Representative image of 5 tumors from each group. (FIG. 9D) Tumor weight by group after Log10 transformation of weight (in mg). * p<0.05, ** p<0.01;
# (FIG. 27A) SK-N-AS-luc and freshly isolated human monocytes were embedded in matrigel and injected into the subcutaneous right flank of eight-week female NSG mice. […] Representative luminescence images (Ctrl n=7, Etan n=13) measured in radiance (photons/second/cm2/steradian). (FIG. 27B) Graphical representation of total luminescence per tumor from (A) over time. (FIG. 27C) Mean tumor total luminescence over time, two-way ANOVA with Bonferroni multiple comparisons test (Ctrl n=7, Etan n=13); NB/Mon+Ctrl line is on top. (FIG. 27D) Representative tumors for each group following sacrifice at day 21. * p<0.05; […]
# [2] = test system: sTNFα production; test: NB-monocyte co-culture, TNFα ELISA of supernatant; assay type: cell-based, human; settings: 24 hours
# Method: (§1) Monocytes were directly cultured with wild-type or TNF, TNFR1, TNFR2 KO NB cell lines in ULA plates for 24 hours. Activation of NF-kB in monocytes and NB was measured by flow cytometry and cytokine production measured by ELISA from co-culture supernatant. To evaluate the contact-dependence of monocyte activation by NB, monocytes were cultured in ULA plates with seven-day NB conditioned medium mixed 1:1 with complete monocyte medium for 24 hours and analyzed for IL-6 production. To assess the growth advantage of NB cultured with monocytes, NB-luc cell lines and monocytes were seeded in tissue culture-treated white 96-well plates (1:1 ratio) and cultured for four days. Luminescence was measured using a TECAN Spark plate reader (TECAN). To evaluate changes in proliferation, NB was pulsed for 10 minutes in CellTrace Violet (2 μM, Invitrogen) and seeded at 100,000 cells per well in a 12-well tissue culture-treated plate. Monocytes were added directly to the NB monolayer at a density of 100,000 per well and incubated for four days. CellTrace Violet expression was analyzed by flow cytometry.
# (§2) Cytokines released by monocytes were detected within co-culture supernatants using the Human TNF-alpha Quantikine ELISA Kit (TNFα, R&D Systems) and the Human IL-6 Quantikine ELISA Kit (IL-6, R&D Systems) according to manufacturer's guidelines. ELISA plates were read using a TECAN Spark plate reader (TECAN). Global cytokine regulation was evaluated using a custom Luminex panel containing the following cytokines: CX3CL1, CXCL10, EGF, FGF-2, Flt3L, G-CSF, GM-CSF, IL-1α, IL-1β, IL-1Ra, IL-4, IL-6, IL-8, IL-10, IL-12 (p40), IL-12 (p′70), M-CSF, MCP-1, MCP-3, MDC, MIP-1α, MIP-1β, TGFα, TNFα, TNFβ, and VEGF-A (Human Cytokine Panel A, Millipore-Sigma).
# [3] = test system: monocyte IL-6 production; test: NB-monocyte co-culture, IL-6 ELISA of supernatant; assay type: cell-based, human; settings: 24 hours
# Method: as §1, §2
# [4] = test system: NF-κB signaling in monocytes; test: Intracellular IκBα in monocyte population of co-culture (PhosFlow flow cytometry); assay type: cell-based, human; settings: 10 μg/mL etanercept
# Method: as §1
# To evaluate the expression of TNFα in NB and monocytes, cells were first stimulated with LPS (50 ng/mL) in the presence of GolgiStop (BD Biosciences) and fixed using CytoFix/Cytoperm buffer (BD Biosciences). Cells were then stained with TNFα-PE (BD Biosciences). To evaluate the expression of TNFR1 and TNFR2 on NB and monocytes, cells were stained with TNFR1-BV421 and TNFR2-APC (BD Biosciences) in FACS staining buffer containing 0.05% sodium azide to prevent receptor/antibody processing. To estimate changes in NF-kB expression, treated co-cultures were first stained with ZombieViolet (1 μL/test, Biolegend) to counterstain dead cells and APC-H7 CD45 and/or FITC-CD14 to label monocytes for 20 minutes at room temperature. […] All flow samples were run using an LSRII 5-laser flow cytometer (Texas Children's Hospital Cancer Center Flow Cytometry Core, Houston, Tex.) and analyzed using FlowJo Software (Treestar).
# [5] = test system: cytokines/chemokines in CHLA-255-monocyte co-cultures; test: Multiplex Luminex cytokine array on co-culture supernatants; assay type: cell-based, human; settings: CHLA-255 + monocytes, 10 μg/mL etanercept, 24 hours
# [6] = SK-N-AS + monocytes, vs IgG control
substance,measurement,setting,value
etanercept,reduction of tumor growth (luminescence),"[1]; 5 mg/kg (100 μg) i.p. bi-weekly, vs IgG control",30%
same,growth of tumors,"[1]; SK-N-AS + monocytes in Matrigel, 100 μg bi-weekly, vs IgG control (FIG. 9)",significantly decreased the growth of tumors
same,sTNFα production,"[2]; CHLA-255 + monocytes, 10 μg/mL etanercept, vs IgG control (FIG. 15A)",almost entirely blocked
same,TNFα level in co-culture supernatant,[2]; [6],decrease
same,IL-6 production,"[3]; CHLA-255 + monocytes, 10 μg/mL etanercept, vs IgG control (FIG. 15B)",almost entirely blocked
same,IL-6 level in co-culture supernatant,[3]; [6],decrease
same,reversal of IκBα degradation in monocytes,"[4]; CHLA-255 + monocytes, 24 hours (FIG. 15C)",complete
same,IκBα levels in monocytes,"[4]; SK-N-AS + monocytes, 24 hours",increasing monocyte levels of IκBα
same,"induction/upregulation of G-CSF, GM-CSF, IL-1α, IL-1β, IL-6, IL-10, IL-12-p40, IP-10, MIP-1β",[5],completely reversed the induction/upregulation of all nine cytokines/chemokines
